{"source": "patent US12551482B2", "about": "“Aurora kinase inhibitors” (The Regents of the University of California, priority 2013, dated 2026)", "key": {"HN": {"system": "HN", "experiment": "Cancer cell line profiling, Genomics of Drug Sensitivity Project", "assay_type": "cell-based", "details": "read-out: CD532 EC50 (uM), Head & Neck"}, "MYCN [1]": {"system": "MYCN", "experiment": "Screen of Kelly MYCN-amplified cells, western blot for MYCN", "assay_type": "cell-based", "details": "1 μM, 24 hrs", "description": "(§1) Neuroblastoma tumor cell lines were obtained from the University of California San Francisco Cell Culture Facility (Kelly, SK-N-BE2, and SH-EP). SMS-KCN, SHEP MYCN^wt and MYCN^T58A/S62A cells were obtained. All cells were grown in RPMI with 10% FBS. Neuroblastoma cells were harvested and lysed with Cell Signaling Lysis buffer+1% SDS, sonicated and supernatants boiled in LDS sample buffer (Invitrogen). Western blots were performed as described previously (Chanthery et al., 2012), with primary antibodies to MYCN (ab24193, Abcam), Histone H3, P-Histone H3 (S10), Aurora A (Cell signaling), and GAPDH (Millipore). Western blot quantitation performed with ImageJ software.\n(§2) To test whether this panel of 32 putative conformation-disrupting Aurora A inhibitors would destabilize MYCN, initially Kelly MYCN-amplified neuroblastoma cells were treated with candidate inhibitors and MYCN protein was measured by western blot. Phosphorylation of Histone H3, a known substrate for Aurora A and B and a marker for mitosis, was also assessed. FIGS. 1B and 5 show decreased levels of both MYCN protein and p-Histone H3 in response to several members of the screening panel (quantitated in FIG. 1)."}, "phospho-histone H3": {"system": "phospho-histone H3", "experiment": "Screen of Kelly MYCN-amplified cells, western blot for phospho-histone H3", "assay_type": "cell-based", "details": "1 μM, 24 hrs", "description": "as §1, §2"}, "Aurora A protein": {"molecular_target": "T1, Aurora A protein (Homo sapiens, UniProt O14965)", "T1 construct": "endogenous in cells; host or cells: SK-N-BE(2), SMS-KCN, Kelly neuroblastoma cells", "T1 sequence (O14965 whole entry)": "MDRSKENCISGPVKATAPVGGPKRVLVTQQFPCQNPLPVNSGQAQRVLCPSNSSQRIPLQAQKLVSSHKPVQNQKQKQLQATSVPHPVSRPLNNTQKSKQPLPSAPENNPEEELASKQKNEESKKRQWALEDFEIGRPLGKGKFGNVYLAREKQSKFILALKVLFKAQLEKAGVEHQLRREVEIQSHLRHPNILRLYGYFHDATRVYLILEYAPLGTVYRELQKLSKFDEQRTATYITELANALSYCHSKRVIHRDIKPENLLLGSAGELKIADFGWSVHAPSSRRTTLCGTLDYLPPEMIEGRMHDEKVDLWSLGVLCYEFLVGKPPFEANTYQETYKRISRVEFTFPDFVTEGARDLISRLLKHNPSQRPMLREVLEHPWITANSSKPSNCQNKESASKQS", "experiment": "Dose response immunoblot for Aurora A protein in MYCN-amplified neuroblastoma cell lines", "assay_type": "cell-based", "details": "across cell lines (FIGS. 1D and 7)", "method": "Neuroblastoma tumor cell lines were obtained from the University of California San Francisco Cell Culture Facility (Kelly, SK-N-BE2, and SH-EP). SMS-KCN, SHEP MYCN^wt and MYCN^T58A/S62A cells were obtained. All cells were grown in RPMI with 10% FBS. Neuroblastoma cells were harvested and lysed with Cell Signaling Lysis buffer+1% SDS, sonicated and supernatants boiled in LDS sample buffer (Invitrogen). […] Western blot quantitation performed with ImageJ software."}, "P-Histone H3 (S10)": {"system": "P-Histone H3 (S10)", "experiment": "Dose response immunoblot for phosphorylation of Histone H3 (S10) in MYCN-amplified neuroblastoma cell lines", "assay_type": "cell-based", "details": "FIGS. 1D and 7", "description": "as §1"}, "MYCN [2]": {"system": "MYCN", "experiment": "MYCN-amplified neuroblastoma xenografts, MYCN protein in tumors", "assay_type": "in vivo", "details": "mice treated daily for 2 days with 60 mg/kg", "description": "(§3) Mice were injected intraperitoneally as described. For determining tumor volume, for example in medulloblastoma model mice, mice were euthanized once maximum tumor length exceeded 2.0 cm, per IACUC protocol (IACUC, Institutional Animal Care and Use Committee)."}, "[3]": {"system": "MYCN-expressing, SHH-subtype medulloblastoma allograft", "experiment": "Medulloblastoma allograft in mice", "assay_type": "in vivo", "description": "as §3"}, "A2058": {"system": "A2058", "experiment": "Cancer cell line profiling, Genomics of Drug Sensitivity Project"}, "WM35": {"system": "WM35", "experiment": "Cancer cell line profiling, Genomics of Drug Sensitivity Project", "details": "WM35, read-out: CD532 EC50 (uM)"}, "MEL-JUSO": {"system": "MEL-JUSO", "experiment": "Cancer cell line profiling, Genomics of Drug Sensitivity Project", "details": "Homo sapiens, read-out: CD532 EC50 (uM)"}, "MEWO": {"system": "MEWO", "experiment": "Cancer cell line profiling, Genomics of Drug Sensitivity Project", "details": "Homo sapiens, read-out: CD532 EC50 (uM)"}, "NUGC-3": {"system": "NUGC-3", "experiment": "Cancer cell line profiling, Genomics of Drug Sensitivity Project"}, "HSC-39": {"system": "HSC-39", "experiment": "Cancer cell line profiling, Genomics of Drug Sensitivity Project", "details": "read-out: CD532 EC50 (uM)"}, "BICR 78": {"system": "BICR 78", "experiment": "Cancer cell line profiling, Genomics of Drug Sensitivity Project", "details": "read-out: CD532 EC50 (uM)"}, "Detroit 562": {"system": "Detroit 562", "experiment": "Cancer cell line profiling, Genomics of Drug Sensitivity Project", "details": "Homo sapiens, Detroit 562, read-out: CD532 EC50 (uM)"}, "DOK": {"system": "DOK", "experiment": "Cancer cell line profiling, Genomics of Drug Sensitivity Project", "details": "read-out: CD532 EC50 (uM)"}, "PE/CA-PJ15": {"system": "PE/CA-PJ15", "experiment": "Cancer cell line profiling, Genomics of Drug Sensitivity Project", "details": "read-out: CD532 EC50 (uM)"}, "OSC-19": {"system": "OSC-19", "experiment": "Cancer cell line profiling, Genomics of Drug Sensitivity Project", "details": "OSC19, read-out: CD532 EC50 (uM)"}, "KON": {"system": "KON", "experiment": "Cancer cell line profiling, Genomics of Drug Sensitivity Project", "details": "read-out: CD532 EC50 (uM)"}, "JHH-7": {"system": "JHH-7", "experiment": "Cancer cell line profiling, Genomics of Drug Sensitivity Project", "details": "JHH7, read-out: CD532 EC50 (uM)"}, "DJM-1": {"system": "DJM-1", "experiment": "Cancer cell line profiling, Genomics of Drug Sensitivity Project", "details": "read-out: CD532 EC50 (uM)"}, "HT-144": {"system": "HT-144", "experiment": "Cancer cell line profiling, Genomics of Drug Sensitivity Project", "details": "Homo sapiens, HT-144, read-out: CD532 EC50 (uM)"}, "IMR-5": {"system": "IMR-5", "experiment": "Cancer cell line profiling, Genomics of Drug Sensitivity Project", "details": "Homo sapiens, IMR-5, read-out: CD532 EC50 (uM)"}, "LB771-HNC": {"system": "LB771-HNC", "experiment": "Cancer cell line profiling, Genomics of Drug Sensitivity Project", "details": "read-out: CD532 EC50 (uM)"}, "NB5": {"system": "NB5", "experiment": "Cancer cell line profiling, Genomics of Drug Sensitivity Project", "details": "read-out: CD532 EC50 (uM)"}, "NCI-H747": {"system": "NCI-H747", "experiment": "Cancer cell line profiling, Genomics of Drug Sensitivity Project", "details": "Homo sapiens, NCI-H747, read-out: CD532 EC50 (uM)"}, "RL95-2": {"system": "RL95-2", "experiment": "Cancer cell line profiling, Genomics of Drug Sensitivity Project", "details": "Homo sapiens, RL95-2, read-out: CD532 EC50 (uM)"}, "HPAC": {"system": "HPAC", "experiment": "Cancer cell line profiling, Genomics of Drug Sensitivity Project", "details": "Homo sapiens, read-out: CD532 EC50 (uM)"}}, "note": "Like-named read-outs stand apart in the source and are kept apart here."}
{"compound": "O=C(Nc1ccc(Nc2nccc(Nc3cc(C4CCCC4)[nH]n3)n2)cc1)Nc1cccc(C(F)(F)F)c1", "note": "[CD532, 1-(4-((4-((5-cyclopentyl-1H-pyrazol-3-yl)amino)pyrimidin-2-yl)amino)phenyl)-3-(3-(trifluoromethyl)phenyl)urea]", "values": [{"measurement": "EC50", "setting": "HN", "result": 1.63, "unit": "µM"}, {"measurement": "MYCN protein level", "setting": "MYCN [1]", "result": "decreased levels of both MYCN and p-Histone H3 proteins"}, {"measurement": "p-Histone H3 level", "setting": "phospho-histone H3", "result": "decreased levels of both MYCN and p-Histone H3 proteins"}, {"measurement": "Aurora A protein level", "setting": "Aurora A protein", "result": "downregulated Aurora A protein across cell lines (at higher concentrations)"}, {"measurement": "phosphorylation of Histone H3 at S10, dose response", "setting": "P-Histone H3 (S10)", "result": "behaves similarly to MLN8237 with regard to Histone H3 phosphorylation"}, {"measurement": "MYCN protein in tumors", "setting": "MYCN [2]", "result": "decreased levels of MYCN protein"}, {"measurement": "overall survival", "setting": "[3]; 25 mg/kg b.i.w. vs vehicle", "result": "statistical significant increase in overall survival"}, {"measurement": "tumor growth (tumor size over time)", "setting": "[3]; 25 mg/kg b.i.w., intraperitoneal injection", "result": "inhibits growth"}, {"measurement": "EC50", "setting": "A2058; Homo sapiens, A2058, read-out: CD532 EC50 (uM), A2058 cell line, Skin", "result": 0.975, "unit": "µM"}, {"measurement": "EC50", "setting": "A2058; read-out: CD532 EC50, A2058 cell line, Skin", "result": 1.09, "unit": "µM"}, {"measurement": "EC50", "setting": "WM35", "result": 0.367, "unit": "µM"}, {"measurement": "EC50", "setting": "MEL-JUSO", "result": 0.783, "unit": "µM"}, {"measurement": "EC50", "setting": "MEWO", "result": 1.46, "unit": "µM"}, {"measurement": "EC50", "setting": "NUGC-3; Homo sapiens, NUGC-3, read-out: CD532 EC50 (uM), NUGC-3 cell line, Stomach", "result": 0.968, "unit": "µM"}, {"measurement": "EC50", "setting": "NUGC-3; read-out: CD532 EC50, NUGC-3 cell line, Stomach", "result": 1.15, "unit": "µM"}, {"measurement": "EC50", "setting": "HSC-39", "result": 0.103, "unit": "µM"}, {"measurement": "EC50", "setting": "BICR 78", "result": 12.2, "unit": "µM"}, {"measurement": "EC50", "setting": "Detroit 562", "result": 1.25, "unit": "µM"}, {"measurement": "EC50", "setting": "DOK", "result": 0.512, "unit": "µM"}, {"measurement": "EC50", "setting": "PE/CA-PJ15", "result": 1.9, "unit": "µM"}, {"measurement": "EC50", "setting": "OSC-19", "result": 1.18, "unit": "µM"}, {"measurement": "EC50", "setting": "KON", "result": 4.15, "unit": "µM"}, {"measurement": "EC50", "setting": "JHH-7", "result": 0.766, "unit": "µM"}, {"measurement": "EC50", "setting": "DJM-1", "result": 0.427, "unit": "µM"}, {"measurement": "EC50", "setting": "HT-144", "result": 0.366, "unit": "µM"}, {"measurement": "EC50", "setting": "IMR-5", "result": 0.0071, "unit": "µM"}, {"measurement": "EC50", "setting": "LB771-HNC", "result": 0.916, "unit": "µM"}, {"measurement": "EC50", "setting": "NB5", "result": 0.761, "unit": "µM"}, {"measurement": "EC50", "setting": "NCI-H747", "result": 0.665, "unit": "µM"}, {"measurement": "EC50", "setting": "RL95-2", "result": 0.335, "unit": "µM"}, {"measurement": "EC50", "setting": "HPAC", "result": 2.5, "unit": "µM"}]}
